Measured values taken from EP4567035A1, “NOVEL COMPOUND AS HYPOXIA-INDUCIBLE FACTOR 1(HIF-1) INHIBITOR OR VASCULAR ENDOTHELIAL GROWTH FACTOR (VEGF) INHIBITOR, AND PHARMACEUTICAL COMPOSITION COMPRISING SAME” (Nextgen Bioscience Co., Ltd., priority 2022, dated 2024).
Where a name gives a salt, the structure may show the parent alone. Read-outs that look alike come from different tables or passages of the source.

Biological target: T1, HIF-1α (Homo sapiens, UniProt Q16665)
T1 construct: endogenous in cells; host or cells: ARPE-19 (ATCC CRL-2302)
Test: Analysis of HIF-1α protein expression (Western blot) in ARPE-19 cells under mixed hypoxic condition
Type: cell-based
Details: concentration range at which HIF-1α expression is reduced by 50% vs untreated control
Description: ARPE-19 cells (Human retinal pigment epithelial cells, ATCC CRL-2302) were cultured in DMEM/F12 (LM002-08, Welgene) medium containing 10% fetal bovine serum (FBS, 16000-044, Gibco) in an incubator at 37°C with 5% carbon dioxide. When the cells grew sufficiently, they were cultured in experimental culture dishes for protein isolation and medium supernatant acquisition.
Cells were detached from the culture dish using TrypLE™ Express (Gibco). After centrifugation at 1000 rpm for 3 minutes, the supernatant was removed. The cells were counted and seeded into new culture dishes. Normoxic conditions were maintained by culturing the cells in a 37°C incubator with 5% carbon dioxide, and hypoxic conditions were maintained by culturing the cells in a hypoxic incubator with 1% oxygen, 5% carbon dioxide, and 94% nitrogen gas.
In a disease of macular degeneration, hypoxia is a very important condition, and since the expression of downstream genes is regulated by HIF-1α, a transcription factor that is stabilized in hypoxic conditions, the following experiment was conducted to confirm this.
Mixed hypoxic condition was used for HIF-1α stability experiments, in which hypoxia was induced with 1% oxygen and the stability of HIF-1α was enhanced by treatment with cobalt chloride (CoCl2).
The compounds of each Example were diluted to 0.1 nM, 1 nM, 3 nM, 10 nM, 30 nM, 100 nM, 300 nM, 1 µM, and 10 µM in DMEM/F12 medium without fetal bovine serum, pretreated for 16 hours or 2 hours, and cultured for 1 hour or 24 hours in a mixed hypoxic condition. The cell medium was discarded, and protein lysates were obtained by rapidly treating with protein lysis buffer (RIPA Lysis and Extraction buffer, Thermo Fisher Scientific). LDS (4X Bolt ™ LDS Sample buffer) and reducing agent (10X Bolt ™ Sample Reducing Agent) were added together to the protein lysate, and heated at 70°C for 10 minutes. The lysate was separated by electrophoresis on a 4-12% Bis-Tris gel, transferred to a PVDF membrane, and blocked with 3% BSA (Albumin, Bovine, Fraction V, MPbio). The membrane was incubated overnight at 4°C with a mixture of anti-HIF-1α (ab179483, abcam) and anti-b-actin (MA515739, Invitrogen) antibodies at a ratio of 1:4000. The following day, the membrane was treated with a peroxidase-conjugated secondary antibody for 1 hour at room temperature, and the target protein was expressed using an ECL solution (Clarity ™ Western ECL substrate, Bio-rad) and quantified.
Based on the results of the expression level of HIF-1α in cells treated with compounds diluted from 10 µM to 0.1 nM, the concentration range of the compound at which the expression level of HIF-1α was reduced by 50% or less compared to the untreated control group was derived.

[1] = mixed hypoxic condition (1% oxygen + CoCl2) for 1 hour, read-out: IC50 HIF-1α Hypoxia (1 hour)
[2] = values marked * in the table, mixed hypoxic condition (1% oxygen + CoCl2) for 24 hours, read-out: IC50 HIF-1α, Hypoxia(24h)

T1 sequence (Q16665 whole entry): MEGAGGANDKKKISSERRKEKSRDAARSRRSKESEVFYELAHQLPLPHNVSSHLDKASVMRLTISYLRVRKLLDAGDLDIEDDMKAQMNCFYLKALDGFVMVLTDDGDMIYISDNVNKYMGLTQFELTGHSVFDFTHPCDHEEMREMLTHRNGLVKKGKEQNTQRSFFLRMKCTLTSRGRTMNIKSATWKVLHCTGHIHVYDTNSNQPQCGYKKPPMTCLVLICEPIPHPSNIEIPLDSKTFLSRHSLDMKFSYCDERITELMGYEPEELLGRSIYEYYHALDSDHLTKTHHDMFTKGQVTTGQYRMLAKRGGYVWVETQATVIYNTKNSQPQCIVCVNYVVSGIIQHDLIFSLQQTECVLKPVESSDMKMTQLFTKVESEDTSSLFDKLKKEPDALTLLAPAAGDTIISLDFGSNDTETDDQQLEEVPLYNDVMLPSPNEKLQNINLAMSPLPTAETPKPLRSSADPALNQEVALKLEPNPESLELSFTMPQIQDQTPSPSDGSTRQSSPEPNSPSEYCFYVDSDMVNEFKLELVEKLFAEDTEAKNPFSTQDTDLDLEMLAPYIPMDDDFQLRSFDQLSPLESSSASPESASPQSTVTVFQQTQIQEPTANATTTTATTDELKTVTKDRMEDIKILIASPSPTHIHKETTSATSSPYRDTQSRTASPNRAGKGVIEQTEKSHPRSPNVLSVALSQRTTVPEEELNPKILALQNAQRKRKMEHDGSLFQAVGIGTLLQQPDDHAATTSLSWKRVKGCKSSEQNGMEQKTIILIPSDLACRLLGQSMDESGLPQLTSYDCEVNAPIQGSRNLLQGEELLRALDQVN

Row | DC50 [1] | DC50 [2] | SMILES
1 | 1 to 10 µM |  | Cn1cc(-c2cc(F)cc(CNC(=O)c3ncnc4nc(CNC(=O)OCc5ccccc5)[nH]c34)c2)cn1 [Example 72, Benzyl ((6-((3-fluoro-5-(1-methyl-1H-pyrazol-4-yl)benzyl)carbamoyl)-7H-purin-8-yl)methyl)carbamate]
2 |  | 0.1 to 1 µM | O=C(NCc1cc(F)cc(-c2cnn(-c3ccc(F)cc3)c2)c1)c1ncnc2nc(C3CCOC3)[nH]c12 (stereo not drawn) [Example 89, N-(3-fluoro-5-(1-(4-fluorophenyl)-1H-pyrazol-4-yl)benzyl)-8-(tetrahydrofuran-3-yl)-7H-purine-6-carboxamide]
3 | 0.1 to 1 µM |  | C[Si](C)(C)CCOCn1c(C2CCCC2)nc2ncnc(C(=O)NCc3cc(F)cc(-c4cnn(-c5cccc(C#N)c5)c4)c3)c21 [Example 22, N-(3-(1-(3-cyanophenyl)-1H-pyrazol-4-yl)-5-fluorobenzyl)-8-cyclopentyl-7-((2-(trimethylsilyl)ethoxy)methyl)-7H-purine-6-carboxamide]
4 | 0.1 to 1 µM |  | Cn1cc(-c2cc(F)cc(CNC(=O)c3ncnc4nc(C5CCN(C(=O)OCc6ccccc6)CC5)[nH]c34)c2)cn1 [Example 69, Benzyl 4-(6-((3-fluoro-5-(1-methyl-1H-pyrazol-4-yl)benzyl)carbamoyl)-7H-purin-8-yl)piperidine-1-carboxylate]
5 | 1 to 10 µM |  | Cn1cc(-c2cc(F)cc(CNC(=O)c3ncnc4nc([C@@H]5CCCN5)[nH]c34)c2)cn1 [Example 62, (S)-N-(3-fluoro-5-(1-methyl-1H-pyrazol-4-yl)benzyl)-8-(pyrrolidin-2-yl)-7H-purine-6-carboxamide hydrochloride]
6 | 1 to 10 µM |  | Cn1cc(-c2cc(F)cc(CNC(=O)c3ncnc4nc([C@H]5CCCN5)[nH]c34)c2)cn1 [Example 65, (R)-N-(3-fluoro-5-(1-methyl-1H-pyrazol-4-yl)benzyl)-8-(pyrrolidin-2-yl)-7H-purine-6-carboxamide hydrochloride]
7 | 0.1 to 1 µM |  | O=C(NCc1cc(F)cc(-c2cnn(-c3ccc(F)cc3)c2)c1)c1nc(Cl)nc2nc(C3CCCC3)[nH]c12 [Example 61, 2-Chloro-8-cyclopentyl-N-(3-fluoro-5-(1-(4-fluorophenyl)-1H-pyrazol-4-yl)benzyl)-7H-purine-6-carboxamide]
8 | 1 to 10 µM |  | CN1CCC(c2nc3ncnc(C(=O)NCc4cc(F)cc(-c5cnn(C)c5)c4)c3[nH]2)CC1 [Example 71, N-(3-fluoro-5-(1-methyl-1H-pyrazol-4-yl)benzyl)-8-(1-methylpiperidin-4-yl)-7H-purine-6-carboxamide]
9 | 1 to 10 µM |  | CN1CCC[C@@H]1c1nc2ncnc(C(=O)NCc3cccc(F)c3)c2[nH]1 [Example 68, (R)-N-(3-fluorobenzyl)-8-(1-methylpyrrolidin-2-yl)-7H-purine-6-carboxamide]
10 |  | 0.1 to 1 µM | O=C(NCc1ccc(F)c(-c2cnn(-c3ccc(F)cc3)c2)c1)c1ncnc2nc(C3CCCC3)[nH]c12 [Example 96, 8-Cyclopentyl-N-(4-fluoro-3-(1-(4-fluorophenyl)-1H-pyrazol-4-yl)benzyl)-7H-purine-6-carboxamide]
11 | 1 to 10 µM |  | Cn1cc(-c2cc(F)cc(CNC(=O)c3ncnc4nc[nH]c34)c2)cn1 [Example 74, N-(3-fluoro-5-(1-methyl-1H-pyrazol-4-yl)benzyl)-7H-purine-6-carboxamide]
12 | 0.1 to 1 µM |  | Cn1cc(-c2cc(F)cc(CNC(=O)c3ncnc4nc(C5CCNCC5)[nH]c34)c2)cn1 [Example 70, N-(3-fluoro-5-(1-methyl-1H-pyrazol-4-yl)benzyl)-8-(piperidin-4-yl)-7H-purine-6-carboxamide hydrochloride]
13 |  | 0.1 to 1 µM | O=C(NCCc1cccc(-c2cnn(-c3ccc(F)cc3)c2)c1)c1ncnc2nc(C3CCCC3)[nH]c12 [Example 94, 8-Cyclopentyl-N-(3-(1-(4-fluorophenyl)-1H-pyrazol-4-yl)phenethyl)-7H-purine-6-carboxamide]
14 | 0.1 to 1 µM |  | Cn1cc(-c2cccc(C3(NC(=O)c4ncnc5nc(C6CCCC6)[nH]c45)CC3)c2)cn1 [Example 6, 8-Cyclopentyl-N-(1-(3-(1-methyl-1H-pyrazol-4-yl)phenyl)cyclopropyl)-7H-purine-6-carboxamide]
15 |  | 1 to 10 µM | C[C@H](NC(=O)c1ncnc2nc(C3CCCC3)[nH]c12)c1cccc(-c2cnn(-c3ccc(F)cc3)c2)c1 [Example 91, (S)-8-cyclopentyl-N-(1-(3-(1-(4-fluorophenyl)-1H-pyrazol-4-yl)phenyl)ethyl)-7H-purine-6-carboxamide]
16 |  | 0.1 to 1 µM | C[C@@H](NC(=O)c1ncnc2nc(C3CCCC3)[nH]c12)c1cccc(-c2cnn(-c3ccc(F)cc3)c2)c1 [Example 90, (R)-8-cyclopentyl-N-(1-(3-(1-(4-fluorophenyl)-1H-pyrazol-4-yl)phenyl)ethyl)-7H-purine-6-carboxamide]
17 | 1 to 10 µM |  | Cn1cc(-c2cc(F)cc(CNC(=O)c3ncnc4nc(C5CCNC5)[nH]c34)c2)cn1 (stereo not drawn) [Example 76, N-(3-fluoro-5-(1-methyl-1H-pyrazol-4-yl)benzyl)-8-(pyrrolidin-3-yl)-7H-purine-6-carboxamide hydrochloride]
18 | 1 to 10 µM |  | CN1CCC(c2nc3ncnc(C(=O)NCc4cc(F)cc(-c5cnn(C)c5)c4)c3[nH]2)C1 (stereo not drawn) [Example 79, N-(3-fluoro-5-(1-methyl-1H-pyrazol-4-yl)benzyl)-8-(1-methylpyrrolidin-3-yl)-7H-purine-6-carboxamide]
19 | 0.1 to 1 µM |  | Cn1cc(-c2cc(F)cc(CNC(=O)c3ncnc4nc(C5CCN(C(=O)OCc6ccccc6)C5)[nH]c34)c2)cn1 (stereo not drawn) [Example 75, Benzyl 3-(6-((3-fluoro-5-(1-methyl-1H-pyrazol-4-yl)benzyl)carbamoyl)-7H-purin-8-yl)pyrrolidine-1-carboxylate]
20 | 0.1 to 1 µM |  | Cn1c(C2CCCC2)nc2ncnc(C(=O)NCc3cc(F)cc(-c4cnn(-c5ccc(F)cc5)c4)c3)c21 [Example 55, 8-Cyclopentyl-N-(3-fluoro-5-(1-(4-fluorophenyl)-1H-pyrazol-4-yl)benzyl)-7-methyl-7H-purine-6-carboxamide]
21 | 1 to 10 µM |  | CC(C)N1CCC[C@H]1c1nc2ncnc(C(=O)NCc3cc(F)cc(-c4cnn(C)c4)c3)c2[nH]1 [Example 67, (S)-N-(3-fluoro-5-(1-methyl-1H-pyrazol-4-yl)benzyl)-8-(1-isopropylpyrrolidin-2-yl)-7H-purine-6-carboxamide]
22 | 1 to 10 µM |  | Cn1cc(-c2cc(F)cc(CNC(=O)c3ncnc4nc(CN)[nH]c34)c2)cn1 [Example 73, 8-(Aminomethyl)-N-(3-fluoro-5-(1-methyl-1H-pyrazol-4-yl)benzyl)-7H-purine-6-carboxamide]
23 | 1 to 10 µM |  | Cn1cc(-c2cc(F)cc(CNC(=O)c3ncnc4nc([C@H]5CCCN5C(=O)OCc5ccccc5)[nH]c34)c2)cn1 [Example 64, Benzyl (R)-2-(6-((3-fluoro-5-(1-methyl-1H-pyrazol-4-yl)benzyl)carbamoyl)-7H-purin-8-yl)pyrrolidine-1-carboxylate]

Row | SMILES | DC50 [1] | DC50 [2]
24 | O=C(NCc1cc(F)cc(Br)c1)c1ncnc2nc(C3CCCC3)[nH]c12 [Example 14, N-(3-bromo-5-fluorobenzyl)-8-cyclopentyl-7H-purine-6-carboxamide] | 0.1 to 1 µM | 
